Measurements as given in patent publication US20070292512A1, “Solid Oral Dosage Form Containing an Enhancer” (priority 2006, published 2007).
Entries after “also recorded” stand apart in the source; their conditions may differ.

How the values were obtained:
HDAC6 = conditions: cited from earlier work
HDAC = conditions: compared to romidepsin; cited from earlier work
[1] = cited from earlier work
HDAC4 = HDAC4 (Homo sapiens, UniProt P56524); conditions: cited from earlier work
[2] = dog, in vivo
Method: Beagle dogs (10-15 Kg) were sedated with medetomidine (80 μg/kg) and an endoscope was inserted via the mouth, esophagus, and stomach into the duodenum. The test solutions (10 ml) comprising leuprolide acetate (Mallinckrodt Inc, St. Louis, Mo.) with or without enhancer reconstituted in deionized water were administered intraduodenally via the endoscope. Following removal of the endoscope, sedation was reversed using atipamezole (400 μg/kg). The parenteral reference solutions comprising 1 mg Leuprolide reconstituted in 0.5 ml sterile water were administered intravenously and subcutaneously respectively.

Caco-2 monolayers [3] = assay: TEER in Caco-2 monolayers; assay type: cell-based; conditions: sodium salts at concentrations of Table 1, with 3H-TRH, over 2 hours
Method: (§1) Cell Culture: Caco-2 cells were cultured in Dulbecco's Modified Eagles Medium (DMEM) 4.5 g/L glucose supplemented with 1% (v/v) non-essential amino acids; 10% fetal calf serum and 1% penicillin/streptomycin. […] The cells were grown and expanded in standard tissue culture flasks and were passaged once they attained 100% confluence. The Caco-2 cells were then seeded on polycarbonate filter inserts (Costar; 12 mm diameter, 0.4 μm pore size) at a density of 5×10^5 cells/cm^2 and incubated in six well culture plates with a medium change every second day. Confluent monolayers between day 20 and day 30 seeding on filters and at passages 30-40 were used throughout these studies.
(§2) The transport experiments were performed in Hank's Balanced Salt Solution (HBSS) containing 25 mM N-[2-hydroxyethyl]-piperazine-N′-[2-ethanesulfonic acid] (HEPES) buffer, pH 7.4 at 37° C. Due to variations in solubilities, various concentrations of the different MCFA sodium salts and various apical buffers were used as shown in Table 1. In all cases the basolateral chamber contained regular HBSS+HEPES.
(§3) After removing the cell culture medium, the monolayers were placed in wells containing pre-warmed HBSS (37° C.); 1 ml apically and 2 ml basolaterally. Monolayers were incubated at 37° C. for 30 minutes. Then at time zero, apical HBSS was replaced with the relevant apical test solution containing the radio-labeled compounds with and without the enhancer compound. […] The plates were placed on an orbital shaker in an incubator (37° C.). […] At each 30-minute interval, each insert was transferred to a new well containing 2 ml fresh pre-warmed HBSS. […] Mean values for ^3H-TRH concentrations were calculated for the apical and basolateral solutions at each time point.

in vivo = assay: in vivo; parameters: species or system beagle dogs; conditions: beagle, dog
Method: The study was a single dose crossover study using from 2 to 5 dogs. Fasted animals were dosed weekly with an intravenous dose (reference) or one of three experimental romidepsin formulations administered directly into the duodenum via a surgically implanted cannula. In all cases the administered dose was 0.1 mg/kg body weight. Blood samples were obtained at selected time intervals post dosing and plasma was shipped to Japan Clinical Laboratories (JCL) for romidepsin analyses. Upon receipt of bioanalytical data from JCL, the individual animal plasma data were loaded into an Excel spreadsheet (Microsoft® Office Excel 2003) and the following pharmacokinetic parameters were calculated from the concentration-time data for each subject: Cmax, Tmax, T1/2, AUC(0-t) and % Bioavailability (% F). Pharmacokinetic parameters were calculated using macros written for Excel (Usansky et al., PK Functions for Microsoft Excel (1999) available at: www.boomer.org/[…].doc).

[4] = system: human tumor xenografts and murine tumors; conditions: human tumor xenografts and murine tumors in mouse models; cited from earlier work
HDAC1 = HDAC1 (Homo sapiens, UniProt Q13547); conditions: range stated for each enzyme; cited from earlier work
[5] = Closed loop rat model, intraduodenal TRH with enhancer, serum TRH; assay type: in vivo, Male Wistar rats; conditions: intraduodenal bolus 500 or 1000 μg TRH with 35 mg enhancer
Method: Male Wistar rats (weight range 250 g-350 g) were anaesthetized with ketamine hydrochloride/acepromazine. […] All intraduodenal dose volumes (for samples and control) were 1 ml/kg. The proximal end of the segment was ligated, and the loop was sprayed with isotonic saline (37° C.) to provide moisture and then replaced in the abdominal cavity avoiding distension. The incision was closed with surgical clips. A group of animals were administered TRH in PBS (100 μg in 0.2 ml) by subcutaneous injection as a reference.

Caco-2 monolayers [6] = assay: 3H-TRH transepithelial transport (Papp) in Caco-2 monolayers; assay type: in vitro ADME; conditions: sodium salts at concentrations of Table 1
Method: as §1, §2, §3

[7] = Closed-loop rat segment, intraileal USP heparin, APTT response; assay type: in vivo; conditions: USP heparin 1000 iu intraileal, sodium caprate 10 and 35 mg
From the text: APTT measurements were taken at various time points.

anti-factor Xa activity [8] = assay: Dog study of oral heparin tablets, anti-factor Xa; assay type: in vivo; conditions: IR formulations, equivalent dose of heparin, dogs
Method: Tablets from batches 3, 7 and 15 in Tables 5 and 6 above were dosed orally to groups of five dogs in a single dose crossover study. […] Blood samples for anti-factor Xa analysis were collected from the jugular vein at various time points.

anti-factor Xa activity [9] = assay: Closed-loop rat segment, intraileal USP heparin, anti-factor Xa response; assay type: in vivo; conditions: USP heparin 1000 iu

Chain of HDAC4 (P56524 whole entry, species assumed): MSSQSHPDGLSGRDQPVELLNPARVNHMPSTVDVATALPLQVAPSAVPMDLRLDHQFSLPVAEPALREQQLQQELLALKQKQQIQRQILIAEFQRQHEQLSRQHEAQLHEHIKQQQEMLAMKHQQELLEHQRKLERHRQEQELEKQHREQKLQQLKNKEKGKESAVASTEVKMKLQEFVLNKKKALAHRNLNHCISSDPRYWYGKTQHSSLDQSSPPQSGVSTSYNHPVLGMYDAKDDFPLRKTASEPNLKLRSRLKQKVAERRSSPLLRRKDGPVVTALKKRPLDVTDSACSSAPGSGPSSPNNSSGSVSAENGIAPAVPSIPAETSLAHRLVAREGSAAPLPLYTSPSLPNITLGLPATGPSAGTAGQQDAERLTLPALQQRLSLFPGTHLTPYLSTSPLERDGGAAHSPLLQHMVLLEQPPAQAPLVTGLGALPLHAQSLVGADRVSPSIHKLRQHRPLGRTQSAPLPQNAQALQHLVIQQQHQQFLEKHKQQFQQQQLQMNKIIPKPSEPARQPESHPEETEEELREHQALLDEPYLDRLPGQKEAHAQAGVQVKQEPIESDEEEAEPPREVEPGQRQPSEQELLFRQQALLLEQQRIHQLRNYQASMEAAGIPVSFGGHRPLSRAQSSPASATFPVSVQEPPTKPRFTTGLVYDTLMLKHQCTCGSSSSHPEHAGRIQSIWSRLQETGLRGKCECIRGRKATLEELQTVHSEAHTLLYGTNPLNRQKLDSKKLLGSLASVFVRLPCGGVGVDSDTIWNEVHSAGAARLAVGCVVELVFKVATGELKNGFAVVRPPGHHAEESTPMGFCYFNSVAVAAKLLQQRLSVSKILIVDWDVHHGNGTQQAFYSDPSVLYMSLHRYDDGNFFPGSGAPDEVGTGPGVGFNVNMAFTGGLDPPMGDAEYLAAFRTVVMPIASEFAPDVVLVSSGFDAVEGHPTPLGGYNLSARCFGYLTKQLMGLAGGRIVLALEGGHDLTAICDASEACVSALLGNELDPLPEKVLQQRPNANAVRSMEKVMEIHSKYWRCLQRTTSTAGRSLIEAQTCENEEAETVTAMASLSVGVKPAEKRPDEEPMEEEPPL
Chain of HDAC1 (Q13547 whole entry): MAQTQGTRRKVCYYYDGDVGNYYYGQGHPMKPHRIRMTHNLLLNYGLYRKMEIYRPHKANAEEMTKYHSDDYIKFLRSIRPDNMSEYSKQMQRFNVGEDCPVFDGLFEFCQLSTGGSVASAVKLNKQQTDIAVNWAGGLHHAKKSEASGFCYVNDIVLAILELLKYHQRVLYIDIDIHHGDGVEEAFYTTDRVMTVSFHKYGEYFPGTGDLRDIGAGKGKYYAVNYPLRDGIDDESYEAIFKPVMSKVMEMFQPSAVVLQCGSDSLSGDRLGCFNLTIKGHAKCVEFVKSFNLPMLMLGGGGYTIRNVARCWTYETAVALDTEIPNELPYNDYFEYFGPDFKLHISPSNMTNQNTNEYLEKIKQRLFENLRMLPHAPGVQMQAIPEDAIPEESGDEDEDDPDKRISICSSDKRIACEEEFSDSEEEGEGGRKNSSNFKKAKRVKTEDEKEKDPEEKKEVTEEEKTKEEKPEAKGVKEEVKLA

With C/C=C1\NC(=O)[C@@H](CS)NC(=O)[C@@H](C(C)C)NC(=O)C[C@@H](/C=C/CCS)OC(=O)[C@H](C(C)C)NC1=O [redFK] as the compound, how does the “inhibitory effect against HDAC6” value (HDAC6; low nanomolar concentrations) read?
The value was “relatively weak; also recorded: almost insensitive”.

And the “inhibiting in vivo HDAC activity” value (HDAC)?
The value was “less active compared to romidepsin”.

What about the “stability in medium and serum” value [1] of the same compound?
The value was “rapid inactivation”.

And the “inhibitory effect against HDAC4” value (HDAC4; low nanomolar concentrations)?
The value was “relatively weak”.

Which results are given for CCNC(=O)[C@@H]1CCCN1C(=O)[C@H](CCCNC(=N)N)NC(=O)[C@H](CC(C)C)NC(=O)[C@@H](CC(C)C)NC(=O)[C@H](Cc1ccc(O)cc1)NC(=O)[C@H](CO)NC(=O)[C@H](Cc1c[nH]c2ccccc12)NC(=O)[C@H](Cc1c[nH]cn1)NC(=O)[C@@H]1CCC(=O)N1 [leuprolide, leuprolide acetate]?
systemic delivery of leuprolide on coadministration with enhancer [2]: considerable enhancer dose dependent enhancement; systemic delivery of leuprolide without enhancer [2]: negligible

Which “effect on TEER compared to the control” value (Caco-2 monolayers [3]) does the source give for CCCCCCCCCCCCCCCCCC(=O)[O-].[Na+] [Batch C18] here?
The value was “minimal reduction in TEER”.

Which results are given for C/C=C1\NC(=O)[C@H]2CSSCC/C=C/[C@H](CC(=O)N[C@H](C(C)C)C(=O)N2)OC(=O)[C@H](C(C)C)NC1=O [romidepsin, (1S,4S,10S,16E,21R)-7-[(2Z)-ethylidene]-4,2,1-diisopropyl-2-oxa-12,13-dithia-5,8,20,23-tetraazabicyclo[8.7.6]tricos-16-ene-3,6,9,19,22-pentanone]?
bioavailability (in vivo): ≤ 28%; times weaker than redFK in inhibiting HDAC6 (HDAC6; range stated for each enzyme): 17-23 times; in vivo antitumor activity [4]: in vivo antitumor activity; stability in medium and serum [1]: more stable than redFK; times weaker than redFK in inhibiting HDAC4 (HDAC4; range stated for each enzyme): 17-23 times; times weaker than redFK in inhibiting HDAC1 (HDAC1): 17-23 times

With CCCCCCCC(=O)[O-].[Na+] [NaC8, sodium caprylate] as the compound, how does the “serum levels of TRH over the control TRH solution” value [5] read?
Its value is “significantly increases the serum levels of TRH”.

What does the source list for CCCCCCCCCCCC(=O)[O-].[Na+] [Batch C12, sodium laurate]?
Papp for 3H-TRH compared to the control (Caco-2 monolayers [6]): considerable increases; effect on TEER compared to the control (Caco-2 monolayers [3]): some cell damage (reduction in TEER)

For CCCCCCCCCCCCCC(=O)[O-].[Na+] [Batch C14], which “Papp for 3H-TRH compared to the control” value (Caco-2 monolayers [6]) is on record?
Its value is “considerable increases”.

And the “effect on TEER compared to the control” value (Caco-2 monolayers [3])?
Its value is “minimal reduction in TEER”.

What does the source list for CCCCCCCCCC(=O)[O-].[Na+] [NaC10, sodium caprate]?
heparin absorption by APTT response vs control heparin solution [7]: significant increase in absorption; Papp for 3H-TRH compared to the control (Caco-2 monolayers [6]): considerable increases; effect on TEER compared to the control (Caco-2 monolayers [3]): minimal reduction in TEER; anti-factor Xa response, NaC10 versus NaC8 enhancer (anti-factor Xa activity [8]): larger anti-factor Xa response; anti-factor Xa activity relative to control heparin solution (anti-factor Xa activity [9]; enhancer 10 mg dose): significant increase in anti-factor Xa activity; anti-factor Xa activity relative to control heparin solution (anti-factor Xa activity [9]; enhancer 35 mg dose): significant increase in anti-factor Xa activity; serum levels of TRH over the control TRH solution [5]: significantly increases the serum levels of TRH
